#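 GI50 = concentration required for 50% inhibition of growth. TGI marks complete inhibition of growth.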
# Assays:
# Assay in all cases: NCI-60 cell line screen, 384-well format
# PC-3 prostate = test system: PC-3 prostate
# NCI-H522 lung = test system: NCI-H522 lung
# UO-31 renal = test system: UO-31 renal
# IGROV1 ovarian = test system: IGROV1 ovarian
# SK-MEL-28 melanoma = test system: SK-MEL-28 melanoma
# SF-539 CNS = test system: SF-539 CNS
# ACHN renal = test system: ACHN renal
# NCI-H226 lung = test system: NCI-H226 lung
# NCI-H322M lung = test system: NCI-H322M lung
# HS 578T breast = test system: HS 578T breast
# MOLT-4 leukemia = test system: MOLT-4 leukemia
# OVCAR-5 ovarian = test system: OVCAR-5 ovarian
# SR leukemia = test system: SR leukemia
compound,measurement,setting,value
CNC(=O)c1ccccc1Nc1nc(Nc2ccc3c(c2OC)CCC[C@H](N2CCN(CCO)CC2)C3)ncc1Cl,GI50,PC-3 prostate,2.02 µM
same,TGI,PC-3 prostate,5.06 µM
same,GI50,NCI-H522 lung,0.862 µM
same,TGI,NCI-H522 lung,2.2 µM
same,GI50,UO-31 renal,1.08 µM
same,TGI,UO-31 renal,2.29 µM
same,GI50,IGROV1 ovarian,0.8 µM
same,TGI,IGROV1 ovarian,2.76 µM
same,GI50,SK-MEL-28 melanoma,1.39 µM
same,TGI,SK-MEL-28 melanoma,2.7 µM
same,GI50,SF-539 CNS,1.5 µM
same,TGI,SF-539 CNS,2.93 µM
same,GI50,ACHN renal,0.584 µM
same,TGI,ACHN renal,2.12 µM
same,GI50,NCI-H226 lung,0.686 µM
same,TGI,NCI-H226 lung,2.7 µM
same,GI50,NCI-H322M lung,0.806 µM
same,TGI,NCI-H322M lung,2.33 µM
same,GI50,HS 578T breast,0.726 µM
same,TGI,HS 578T breast,2.03 µM
same,GI50,MOLT-4 leukemia,1.28 µM
same,TGI,MOLT-4 leukemia,2.56 µM
same,GI50,OVCAR-5 ovarian,0.925 µM
same,TGI,OVCAR-5 ovarian,3.48 µM
same,GI50,SR leukemia,0.0186 µM
same,TGI,SR leukemia,0.0347 µM

# Source: PubChem BioAssay (NCI)
